The target of experiment [1] is PA N-terminal endonuclease domain (residues 1–220) of influenza A RNA polymerase (Influenza A virus, UniProt P03433). Briefly: in vitro PA endonuclease assay with recombinant PA endonuclease domain (M13 mp18 digestion, agarose electrophoresis). Format: biochemical, influenza A virus (A/PR/8/34 (H1N1)). Conditions: Fig. 2C. As for the experimental part:
For the in vitro PA endonuclease assay, we expressed and purified a recombinant influenza PA endonuclease domain (1–220 residues; Fig. 2A, B) using bacteria as described previously [15]–[17]. For the assay, we incubated 0.1 µM recombinant PA endonuclease domain with 1 or 10 µM of each fullerene derivative (Fig. 2C). The PA endonuclease domain digested M13 mp18 circular single-stranded DNA in vitro (Fig. 2C, lanes 1 and 2) [12]–[16], and we investigated whether any of the fullerene derivatives could inhibit this activity. […] This is the first study to report that fullerene derivatives can inhibit the activity of influenza enzymes. Fullerene derivative no.
The influenza A virus (A/PR/8/34 (H1N1)) RNA polymerase PA plasmid, pBMSA-PA, was obtained from the DNA bank at Riken BioResource Center (Tsukuba, Japan; originally deposited by Susumu Nakada). The cDNA fragment corresponding to the PA N-terminal endonuclease domain (residues 1–220; Fig. 2A) was amplified by polymerase chain reaction (PCR) from pBMSA-PA. The amplified product was subcloned into the pET28a (+) plasmid (Novagen, Madison, WI, USA). The induction of recombinant protein expression was achieved by the addition of isopropyl-D-thiogalactopyranoside, and this was followed by purification using Ni^2+-agarose. The recombinant PA endonuclease domain protein was further purified to near homogeneity (Fig. 2B) using a HiTrapQ-FF column (GE Healthcare, Buckinghamshire, UK).
Influenza A RNA polymerase PA endonuclease activity assays were performed as described by Dias et al. with some modifications [12]–[16]. Briefly, the pH was lowered from 8.0 to 7.3, and 1 µg M13 mp18 single-stranded circular phage DNA was used as the substrate. A total of 0.25 µg recombinant PA endonuclease domain or full-length PA protein were added to 100 µL assay buffer for each reaction (the final concentration of the protein was approximately 0.1 µM). For the fullerene derivative nuclease assay, no PA protein was added at this step. The fullerene derivatives (summarized in Fig. 1) were then added to the reaction, and the products were analyzed by agarose electrophoresis and stained with ethidium bromide.

The test system of experiment [2] is M13 mp18 single-stranded circular phage DNA. Nature of the experiment: fullerene derivative nuclease assay in the absence of PA protein. In kind it is biochemical. The note with it: 10 µM; absence of PA endonuclease; M13 mp18 substrate; Fig. 4.
The subject of experiment [3] is influenza A virus A/PR/8/34 (H1N1). Briefly: microbe, parasite or virus in culture. Format: cell-based. Conditions: for IC50: read-out: IC50 H1N1 PR8 strain.
Experiment [4] relates to influenza A virus A/Aichi/2/68 (H3N2). Nature of the experiment: microbe, parasite or virus in culture. In kind it is cell-based. The note with it: read-out: IC50 H3N2 Aichi strain.
Experiment [5] has as its system influenza A virus (A/PR/8/34 (H1N1)). Format: cell-based. Conditions: 100 µM, A/PR8/34 (H1N1), western blotting. In general terms: In western blotting, separated proteins are transferred to a membrane and probed.
Details of experiment [6]: method as in PMID 14643333. The note with it: cited from earlier work.
On the set-up of experiment [7]: method as in PMID 14643333. Conditions: cited from earlier work. The source holds these as a separate data set.
In experiment [8] the test system is HIV-reverse transcriptase. Further details: method as in PMID 15686922. The note with it: cited from earlier work.
On the set-up of experiment [9]: method as in earlier work. The note with it: cited from earlier work.

Where two headings read alike, the source gives them in different places. A value given as a limit tells only on which side of the number the result lay.

For “1,1,1′,1′-tetramethyl [60]fullerenodipyrrolidinium diiodide [no. 6]”, the “inhibition of the digestion of M13 mp18 by the PA endonuclease domain” value in [1] (10 µM fullerene derivative, 0.1 µM recombinant PA endonuclease domain) is listed as “no or weak inhibitory activity”. Moreover, in [1] (lane 13), the “mobility shift of M13 mp18” value is “caused a mobility shift”. Further, the “nuclease activity of the fullerene derivative by itself” value in experiment [2] is given as “significant nuclease activity”. Further, the IC50 (in general, the point on the concentration scale where inhibition reaches its midpoint) in experiment [3] turned out to be 20 µM; in [4], 31 µM. In addition, the “antiviral effects against the influenza A virus (overall conclusion)” value in [3] (summary of immunostaining and western blotting) was “strongest antiviral activity”. Further, in experiment [5], the “expression levels of influenza A NP and NS1 proteins compared with DMSO-treated cells” value is given as “reduced”. For the same compound, in experiment [6], the antiproliferative activity entry was “antiproliferative and antibacterial activity”. Further, in [7], the antibacterial activity entry was “antiproliferative and antibacterial activity”.

Turning to `O=C(O)C1NC(C(=O)O)C23c4c5c6c7c8c9c(c%10c%11c2c2c4c4c%12c5c5c6c6c8c8c%13c9c9c%10c%10c%11c%11c2c2c4c4c%12c%12c5c5c6c8c6c8c%13c9c9c%10c%10c%11c2c2c4c4c%12c5c6c5c8c9c%10c2c45)C713` (stereo not drawn) [no. 3, [60]fullerenopyrrolidine-2,5-dicarboxylic acid], the IC50 was over 100 µM in [3] (Influenza A virus, MDCK, 24 h) and over 100 µM in [4] (Influenza A virus, H3N2, MDCK, 24 h). The “inhibition of HIV-reverse transcriptase” value in experiment [8] is “inhibits”.

Regarding “[60]fullerenodicyclopropane-1,1,1′,1′-tetracarboxylic acid [no. 2]”, the IC50 is 57 µM in [3] and over 100 µM in [4]. The antioxidant activity result in experiment [9] was “excellent antioxidant activity”.

(Values after PMC3681905, “Anti-Influenza Activity of C60 Fullerene Derivatives” (PLoS ONE, 2013).)
